Data from US20130012432A1, “Peptides for Treatment of Obesity” (Novo Nordisk A/S, priority 2010, published 2013).
Values after ≈ are worked out from the molar mass of the structure shown. Positions of bridges follow the written chain, without caps; N, C: chain ends. Non-standard residues stand in square brackets, D forms with d. Residues, ends and D or L forms follow the SMILES beside them. Groups on a side chain read outwards from the residue. *: point of attachment. Palmitoyl(16-(5-tetrazolyl)) = O=C(CCCCCCCCCCCCCCCc1nnn[nH]1)*; Lys(CH2CO2H)2 = N[C@@H](CCCCN(CC(=O)O)CC(=O)O)C(=O)O; C16 diacid = O=C(O)CCCCCCCCCCCCCCC(=O)*; Hyp = O=C(O)[C@@H]1C[C@@H](O)CN1; NTA = O=C(O)CN(CC(=O)O)CC(=O)*; hCys = N[C@@H](CCS)C(=O)O; Dap = NC[C@H](N)C(=O)O; AEEA = NCCOCCOCC(=O)O

Experiments:
physchem = test: physchem
Experimental: From a stock solution in vehicle, either H2O or 10 mM phosphate, containing 1 mg (as weighed) compound per ml, 8-11 aliquots are withdrawn and pH-adjusted individually with HCl/NaOH, to cover the whole pH range.

MC1 receptor = MC1 receptor (Homo sapiens, UniProt Q01726); test: biochemical
MC1 receptor, sequence (Q01726 whole entry): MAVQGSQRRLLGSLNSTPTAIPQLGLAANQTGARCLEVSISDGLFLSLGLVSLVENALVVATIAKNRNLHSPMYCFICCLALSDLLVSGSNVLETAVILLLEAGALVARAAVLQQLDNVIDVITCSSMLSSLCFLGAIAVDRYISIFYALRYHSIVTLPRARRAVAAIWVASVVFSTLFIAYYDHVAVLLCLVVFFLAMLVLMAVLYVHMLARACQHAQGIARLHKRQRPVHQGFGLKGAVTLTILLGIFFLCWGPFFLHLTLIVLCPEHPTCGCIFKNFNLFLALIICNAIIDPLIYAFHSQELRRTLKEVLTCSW
How it was run: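 Compounds competed against 125I-NDP-α-MSH (22 pM final) for binding to stably MC1-expressing BHK cell membranes, 30 °C for 90 min in HEPES pH 7.4 buffer with 0.1% HSA or ovalbumin. Bound ligand collected by filtration and counted; binding curves analysed by non-linear regression.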

CC(=O)N[C@H]1CCSSC[C@@H](C(=O)N2CCC[C@H]2C(=O)N2CCC[C@H]2C(=O)N[C@@H](CCCCN)C(=O)N[C@@H](CC(=O)O)C(=O)N[C@@H](CNC(=O)CN(CC(=O)O)CC(=O)O)C(=O)N[C@@H](CCCCNC(=O)COCCOCCNC(=O)CCCCCCCCCCCCCCCc2nnn[nH]2)C(N)=O)NC(=O)[C@H](Cc2c[nH]c3ccccc23)NC(=O)[C@H](CCCNC(=N)N)NC(=O)[C@@H](Cc2ccccc2)NC(=O)[C@H](CCC(N)=O)NC1=O [Example 66, Ac-c[homoCys-Gln-D-Phe-Arg-Trp-Cys]-Pro-Pro-Lys-Asp-Dap(BCMA)-Lys[(2-{2-[16-(tetrazol-5-yl)hexadecanoylamino]ethoxy}ethoxy)acetyl]-NH2] (Ac-[hCys]Q[dF]RWCPPKD[Dap](NTA)K([AEEA-Palmitoyl(16-(5-tetrazolyl))])-NH2; disulfide 1-6)
solubility (physchem; pH 4.8, Solubility Conc.): 38 µM (≈ 82.5 µg/mL)
solubility (physchem; pH 6.4, Solubility Conc.): 390 µM (≈ 847 µg/mL)
solubility (physchem; pH 6.5, Solubility Conc.): 474 µM (≈ 1030 µg/mL)
solubility (physchem; pH 6.7, Solubility Conc.): 447 µM (≈ 971 µg/mL)
solubility (physchem; pH 6.9, Solubility Conc.): 455 µM (≈ 988 µg/mL)
solubility (physchem; pH 7.2, Solubility Conc.): 461 µM (≈ 1000 µg/mL)
solubility (physchem; pH 7.4, Solubility Conc.): 478 µM (≈ 1040 µg/mL)
solubility (physchem; pH 7.6, Solubility Conc.): 507 µM (≈ 1100 µg/mL)
solubility (physchem; pH 8.1, Solubility Conc.): 499 µM (≈ 1080 µg/mL)
Ki (MC1 receptor): > 10 µM

CC(=O)N[C@H]1CCSSC[C@@H](C(=O)N2CCC[C@H]2C(=O)N2CCC[C@H]2C(=O)N[C@@H](CCCCN)C(=O)N[C@@H](CC(=O)O)C(=O)N[C@@H](CNC(=O)CN(CC(=O)O)CC(=O)O)C(=O)N[C@@H](CCCCNC(=O)COCCOCCNC(=O)CCCCCCCCCCCCCCCc2nnn[nH]2)C(N)=O)NC(=O)[C@H](Cc2c[nH]c3ccccc23)NC(=O)[C@H](CCCNC(=N)N)NC(=O)[C@@H](Cc2ccccc2)NC(=O)[C@@H]2C[C@@H](O)CN2C1=O [Example 67, Ac-c[homoCys-Hyp-D-Phe-Arg-Trp-Cys]-Pro-Pro-Lys-Asp-Dap(BCMA)-Lys[(2-{2-[16-(tetrazol-5-yl)hexadecanoylamino]ethoxy}ethoxy)acetyl]-NH2] (Ac-[hCys][Hyp][dF]RWCPPKD[Dap](NTA)K([AEEA-Palmitoyl(16-(5-tetrazolyl))])-NH2; disulfide 1-6)
solubility (physchem; pH 3.3, Solubility Conc.): 600 µM (≈ 1290 µg/mL)
solubility (physchem; pH 3.4, Solubility Conc.): 420 µM (≈ 906 µg/mL)
solubility (physchem; pH 3.6, Solubility Conc.): 250 µM (≈ 539 µg/mL)
solubility (physchem; pH 4.1, Solubility Conc.): 37 µM (≈ 79.8 µg/mL)
solubility (physchem; pH 5.4, Solubility Conc.): 38 µM (≈ 81.9 µg/mL)
solubility (physchem; pH 5.9, Solubility Conc.): 207 µM (≈ 446 µg/mL)
solubility (physchem; pH 6.3, Solubility Conc.): 482 µM (≈ 1040 µg/mL)
solubility (physchem; pH 6.4, Solubility Conc.): 533 µM (≈ 1150 µg/mL)
solubility (physchem; pH 6.8, Solubility Conc.): 587 µM (≈ 1270 µg/mL)
solubility (physchem; pH 7.3, Solubility Conc.): 590 µM (≈ 1270 µg/mL)
Ki (MC1 receptor): > 10 µM

CC(=O)N[C@H]1CCSSC[C@@H](C(=O)N2CCC[C@H]2C(=O)N2CCC[C@H]2C(=O)N[C@@H](CO)C(=O)N[C@@H](CCC(=O)O)C(=O)N[C@@H](CCCCN(CC(=O)O)CC(=O)O)C(=O)N[C@@H](CCCCNC(=O)COCCOCCNC(=O)CCCCCCCCCCCCCCC(=O)O)C(N)=O)NC(=O)[C@H](Cc2c[nH]c3ccccc23)NC(=O)[C@H](CCCNC(=N)N)NC(=O)[C@@H](Cc2ccccc2)NC(=O)[C@H](Cc2c[nH]cn2)NC1=O [Example 70, Ac-c[homoCys-His-D-Phe-Arg-Trp-Cys]-Pro-Pro-Ser-Glu-Lys(biscarboxymethyl)-Lys({2-[2-(15-carboxypentadecanoylamino)ethoxy]ethoxy}acetyl)-NH2] (Ac-[hCys]H[dF]RWCPPSE[Lys(CH2CO2H)2]K([AEEA-C16 diacid])-NH2; disulfide 1-6)
solubility (physchem; pH 3.4, Solubility Conc.): 190 µM (≈ 399 µg/mL)
solubility (physchem; pH 3.9, Solubility Conc.): 65 µM (≈ 137 µg/mL)
solubility (physchem; pH 4.4, Solubility Conc.): 40 µM (≈ 84 µg/mL)
solubility (physchem; pH 5.5, Solubility Conc.): 59 µM (≈ 124 µg/mL)
solubility (physchem; pH 5.6, Solubility Conc.): 142 µM (≈ 298 µg/mL)
solubility (physchem; pH 5.8, Solubility Conc.): 210 µM (≈ 441 µg/mL)
solubility (physchem; pH 6.1, Solubility Conc.): 429 µM (≈ 901 µg/mL)
solubility (physchem; pH 7.5, Solubility Conc.): 444 µM (≈ 933 µg/mL)
solubility (physchem; pH 7.8, Solubility Conc.): 463 µM (≈ 973 µg/mL)
solubility (physchem; pH 8, Solubility Conc.): 440 µM (≈ 924 µg/mL)
Ki (MC1 receptor): > 10 µM
